Measured values: patent publication US9975880B2, “Imidazolidine-2,4-dione dervatives” (IPSEN PHARMA S.A.S., priority 2013, dated 2018)
In brackets after ≈: the same amount, converted by molar mass. Where two headings read alike, the source gives them in different places.

Experiments:
Evaluation of solubility = format: physicochemical; details: aqueous buffer, kinetic from dmso stock; 100 mM potassium phosphate buffer pH 7.4, 0.1% DMSO, target 100 μM, 1 hour room temperature, LC-MS/MS
Method: Test compounds were prepared as stock solutions at 100 mM in DMSO. The stock solutions were diluted, in duplicate, into 100 mM potassium phosphate buffer (pH 7.4) to a target concentration of 100 μM with a final DMSO concentration of 0.1%. The solutions were shaken at 1000 rpm for 1 hour at room temperature followed by centrifugation for 10 minutes at 1200 rpm to precipitate un-dissolved particles. The supernatants were transferred to new tubes and the samples were further prepared as follows: • Undiluted: 5 μL of supernatant to 95 μL of ACN containing internal standard (IS) • 1:10 diluted: 10 μL of the supernatant into 90 μL K-buffer, mix, then transfer 5 μL of 1:10 diluted samples to 95 μL ACN containing IS • 1:100 diluted: 10 μL of the supernatant into 990 μL K-buffer, mix, then transfer 5 μL of 1:100 diluted samples to 95 μL of ACN containing IS
Samples (undiluted, 1:10 diluted, and 1:100 diluted) along with the standards were analyzed by LC-MS/MS.

DU145 cells = assay: Anti-proliferative activity on DU145 in complete medium; format: cell-based; details: DU145 (no androgen receptor), 144 h, up to 10,000 nM, Cell-Titer-Glow
Method: (§1) It is used to evaluate the selectivity of the compounds for androgen receptor expressing cells. No activity of the compounds is expected. • The cells of the DU145 line (ATCC HTB-81) are seeded at 800 cells/well in 90 μl of complete medium in 96-well plates coated with poly-D-lysine (Biocoat, Costar). • Treatment of the cells: 24 h after the seeding, the cells are treated with 10 μl/well of compound diluted in the culture medium. The concentrations used are the following: 1 nM/10/30/100/300/1000/3000/10,000 nM. The cells are incubated for 144 h at 37° C., 5% CO2. • Reading: After incubation for 6 days, cell proliferation was determined by Cell-Titer-Glow (CTG) Luminescent Cell Viability Assay • Results: The experiments are carried out in duplicate and the best compounds are tested twice. A concentration value inhibiting the cell proliferation by 50% (IC50) is calculated.

LNCaP cells = assay: Anti-proliferative activity on LNCaP in complete medium; format: cell-based; details: Homo sapiens, 144 h
Method: The anti-proliferative activity of the compounds of the present invention is determined on LNCaP in complete medium by applying the following experimental procedure:
The LNCaP cell type (ATCC, 1740) originates from a prostate carcinoma. This line expresses the androgen receptor and is hormone-dependent.
Maintenance of the LNCaP line is carried out in complete culture medium: RPMI, 10% of fetal calf serum, 2 mM glutamine, 100 U/ml penicillin, 0.1 mg/ml of streptomycin and 0.01M HEPES, 1 mM sodium pyruvate, […]. • Seeding the plates:
The LNCaP line is seeded at 20,000 cells/well in 90 μl of complete medium in 96-well plates coated with poly-D-lysine (Biocoat, Costar). • Treatment of the cells: 24 h after the seeding, the cells are treated with 10 μl/well of compound diluted in the culture medium. The concentrations used are the following: 1 nM/10/30/100/300/1000/3000/10,000 nM. The cells are incubated for 144 h at 37° C., 5% CO2. • Reading: After incubation for 6 days, cell proliferation was determined by Cell-Titer-Glow (CTG) Luminescent Cell Viability Assay. • Results: The experiments are carried out in duplicate and the best compounds are tested twice. […] Anti-Proliferative Activity on DU145 in Complete Medium

VCaP cells = assay: Anti-proliferative activity on VCaP in complete medium; format: cell-based; details: Homo sapiens, Cell-Titer-Glow, read-out: IC50 on the VCaP cells in culture (inhibition of cell proliferation by 50%)
Method: as §1, with “•” for “It is used to evaluate the selectivity of the compounds for androgen receptor expressing cells. No activity of the compounds is expected. •”, “the VCaP” for “the DU145”, “(ATCC CRL-2876)” for “(ATCC HTB-81)”, “at 20000” for “at 800”, “for […]” for “for 6”

[1] = complete medium, 144 h incubation, Cell-Titer-Glow, read-out: IC50 on the LNCaP cells in culture (inhibition of cell proliferation by 50%)
[2] = read-out: IC50 on the LNCaP cells in culture (inhibition of cell proliferation by 50%), LNCaP, complete medium, 144 h incubation, Cell-Titer-Glow

Row | Structure (SMILES) | solubility at 1 h (Evaluation of solubility) [µM] | IC50 on DU145 cells (anti-proliferative effect) (DU145 cells) | IC50 (LNCaP cells; [1]) [µM] | IC50 (LNCaP cells; [2]) [µM] | IC50 (VCaP cells) [µM]
1 | CC1(C)C(=O)N(c2ccc(S(C)(=O)=O)c(C(F)(F)F)c2)C(=O)N1C/C=C\CN1CC(c2ccc(S(C)(=O)=O)c(C(F)(F)F)c2)CC1=O (centres unmarked) [Example 15, (Z)-5,5-dimethyl-3-(4-(methylsulfonyl)-3-(trifluoromethyl)phenyl)-1-(4-(4-(4-(methylsulfonyl)-3-(trifluoromethyl)phenyl)-2-oxopyrrolidin-1-yl)but-2-en-1-yl)imidazolidine-2,4-dione] | 1.9 (≈ 1.34 µg/mL) | no measurable IC50 | < 1.5 | – | –
2 | Cc1nn(C/C=C\CN2C(=O)N(c3ccc(C#N)c(C(F)(F)F)c3)C(=O)C2(C)C)c(C)c1-c1ccc(S(C)(=O)=O)c(C(F)(F)F)c1 [Example 6, (Z)-4-(3-(4-(3,5-dimethyl-4-(4-(methylsulfonyl)-3-(trifluoromethyl)phenyl)-1H-pyrazol-1-yl)but-2-en-1-yl)-4,4-dimethyl-2,5-dioxoimidazolidin-1-yl)-2-(trifluoromethyl)benzonitrile] | 4.38 (≈ 2.92 µg/mL) | no measurable IC50 | – | – | –
3 | CC1(C)C(=O)N(c2cnc(C#N)c(C(F)(F)F)c2)C(=O)N1C/C=C\Cn1cc(-c2ccc(S(C)(=O)=O)c(Cl)c2)cn1 [Example 5, (Z)-5-(3-(4-(4-(3-chloro-4-(methylsulfonyl)phenyl)-1H-pyrazol-1-yl)but-2-en-1-yl)-4,4-dimethyl-2,5-dioxoimidazolidin-1-yl)-3-(trifluoromethyl)picolinonitrile] | 0.65 (≈ 0.395 µg/mL) | no measurable IC50 | – | – | –
4 | CC1(C)C(=O)N(c2ccc(C#N)c(C(F)(F)F)c2)C(=O)N1C/C=C\CN1CCN(c2ccc(S(C)(=O)=O)c(Cl)c2)C1=O [Example 11, (Z)-4-(3-(4-(3-(3-chloro-4-(methylsulfonyl)phenyl)-2-oxoimidazolidin-1-yl)but-2-en-1-yl)-4,4-dimethyl-2,5-dioxoimidazolidin-1-yl)-2-(trifluoromethyl)benzonitrile] | 0.34 (≈ 0.212 µg/mL) | no measurable IC50 | – | < 1.5 | –
5 | CC1(C)C(=O)N(c2ccc(S(C)(=O)=O)c(C(F)(F)F)c2)C(=O)N1C/C=C\Cn1cc(-c2ccc(S(C)(=O)=O)c(C(F)(F)F)c2)cn1 [Example 3, (Z)-5,5-dimethyl-3-(4-(methylsulfonyl)-3-(trifluoromethyl)phenyl)-1-(4-(4-(4-(methylsulfonyl)-3-(trifluoromethyl)phenyl)-1H-pyrazol-1-yl)but-2-en-1-yl)imidazolidine-2,4-dione] | 0.2 (≈ 0.139 µg/mL) | no measurable IC50 | < 1.5 | – | ≤ 5
6 | CC1(C)C(=O)N(c2ccc(S(C)(=O)=O)c(Cl)c2)C(=O)N1C/C=C\CN1CCC(O)(c2ccc(C#N)c(C(F)(F)F)c2)C1 (centres unmarked) [Example 16, (Z)-4-(1-(4-(3-(3-chloro-4-(methylsulfonyl)phenyl)-5,5-dimethyl-2,4-dioxoimidazolidin-1-yl)but-2-en-1-yl)-3-hydroxypyrrolidin-3-yl)-2-(trifluoromethyl)benzonitrile] | – | no measurable IC50 | < 1.5 | – | –
7 | CC1(C)C(=O)N(c2ccc(C#N)c(C(F)(F)F)c2)C(=O)N1C/C=C\CN1CCC(c2ccc(C#N)c(C(F)(F)F)c2)C1 (centres unmarked) [Example 12, (Z)-4-(1-(4-(3-(4-cyano-3-(trifluoromethyl)phenyl)-5,5-dimethyl-2,4-dioxoimidazolidin-1-yl)but-2-en-1-yl)pyrrolidin-3-yl)-2-(trifluoromethyl)benzonitrile] | – | no measurable IC50 | < 1.5 | – | ≤ 5
8 | CC1(C)C(=O)N(c2cnc(C#N)c(C(F)(F)F)c2)C(=O)N1C/C=C\Cn1cc(-c2ccc(S(C)(=O)=O)c(C(F)(F)F)c2)cn1 [Example 4, (Z)-5-(4,4-dimethyl-3-(4-(4-(4-(methylsulfonyl)-3-(trifluoromethyl)phenyl)-1H-pyrazol-1-yl)but-2-en-1-yl)-2,5-dioxoimidazolidin-1-yl)-3-(trifluoromethyl)picolinonitrile] | 1.7 (≈ 1.09 µg/mL) | no measurable IC50 | – | – | –
9 | CC1(C)C(=O)N(c2ccc(C#N)c(C(F)(F)F)c2)C(=O)N1C/C=C\CN1CCN(c2ccc(S(C)(=O)=O)c(Cl)c2)S1(=O)=O [Example 17, (Z)-4-(3-(4-(5-(3-chloro-4-(methylsulfonyl)phenyl)-1,1-dioxido-1,2,5-thiadiazolidin-2-yl)but-2-en-1-yl)-4,4-dimethyl-2,5-dioxoimidazolidin-1-yl)-2-(trifluoromethyl)benzonitrile] | 1.97 (≈ 1.3 µg/mL) | no measurable IC50 | – | < 1.5 | –
10 | CC1(C)C(=O)N(c2ccc(C#N)c(C(F)(F)F)c2)C(=O)N1C/C=C\CN1CC(c2ccc(S(C)(=O)=O)c(Cl)c2)CC1=O (centres unmarked) [Example 14, (Z)-4-(3-(4-(4-(3-chloro-4-(methylsulfonyl)phenyl)-2-oxopyrrolidin-1-yl)but-2-en-1-yl)-4,4-dimethyl-2,5-dioxoimidazolidin-1-yl)-2-(trifluoromethyl)benzonitrile] | 24.1 (≈ 15 µg/mL) | no measurable IC50 | – | – | ≤ 5
11 | CC1(C)C(=O)N(c2ccc(C#N)c(C(F)(F)F)c2)C(=O)N1C/C=C\CN1CC(c2ccc(S(C)(=O)=O)c(C(F)(F)F)c2)CC1=O (centres unmarked) [Example 13, (Z)-4-(4,4-dimethyl-3-(4-(4-(4-(methylsulfonyl)-3-(trifluoromethyl)phenyl)-2-oxopyrrolidin-1-yl)but-2-en-1-yl)-2,5-dioxoimidazolidin-1-yl)-2-(trifluoromethyl)benzonitrile] | – | no measurable IC50 | < 1.5 | – | ≤ 5
12 | CC1(C)C(=O)N(c2ccc(C#N)c(C(F)(F)F)c2)C(=O)N1C/C=C\CN1CCN(c2ccc(S(C)(=O)=O)c(C(F)(F)F)c2)C1=O [Example 10, (Z)-4-(4,4-dimethyl-3-(4-(3-(4-(methylsulfonyl)-3-(trifluoromethyl)phenyl)-2-oxoimidazolidin-1-yl)but-2-en-1-yl)-2,5-dioxoimidazolidin-1-yl)-2-(trifluoromethyl)benzonitrile] | – | no measurable IC50 | – | – | ≤ 5
